Measured values taken from ChEMBL document CHEMBL3585283, “Synthesis and evaluation of a series of quinolinyl trans-cyanostilbene analogs as anticancer agents” (2014).
Activity calls are given as the source filed them. The rule behind the calls is not given here.

Legend:
HCT-15 = experiment: Antitumor activity against human HCT15 cells after 48 hrs; format: functional; details: HCT-15, 48 h
SW-620 = experiment: Antitumor activity against human SW620 cells after 48 hrs; format: functional; details: SW-620, 48 h
NCI-H522 = experiment: Antitumor activity against human NCI-H522 cells after 48 hrs; format: functional; details: NCI-H522, 48 h
[1] = Antitumor activity against human RPMI8226 cells after 48 hrs; format: functional; details: RPMI-8226, 48 h
[2] = Antitumor activity against human LOXIMVI cells after 48 hrs; format: functional; details: LOX IMVI
[3] = Antitumor activity against human NCI-ADR-RES cells after 48 hrs; format: functional
[4] = Antitumor activity against human RXF393 cells after 48 hrs; format: functional; details: RXF 393, 48 h
[5] = Antitumor activity against human SF539 cells after 48 hrs; format: functional; details: SF-539, 48 h
[6] = Antitumor activity against human COLO205 cells after 48 hrs; format: functional; details: COLO 205, 48 h
UACC-257 = experiment: Antitumor activity against human UACC257 cells after 48 hrs; format: functional; details: UACC-257, 48 h
TK-10 = experiment: Antitumor activity against human TK10 cells after 48 hrs; format: functional; details: TK-10, 48 h
OVCAR-4 = experiment: Antitumor activity against human OVCAR4 cells after 48 hrs; format: functional; details: OVCAR-4, 48 h
SK-MEL-2 = experiment: Antitumor activity against human SK-MEL-2 cells after 48 hrs; format: functional; details: SK-MEL-2, 48 h
NCI-H226 = experiment: Antitumor activity against human NCI-H226 cells after 48 hrs; format: functional; details: NCI-H226, 48 h
A549 = experiment: Antitumor activity against human A549 cells after 48 hrs; format: functional; details: A549, 48 h
NCI-H460 = experiment: Antitumor activity against human NCI-H460 cells after 48 hrs; format: functional; details: NCI-H460, 48 h
MDA-MB-435 = experiment: Antitumor activity against human MDA-MB-435 cells after 48 hrs; format: functional; details: MDA-MB-435, 48 h
Malme-3M = experiment: Antitumor activity against human MALME-3M cells after 48 hrs; format: functional
SN12C = experiment: Antitumor activity against human SN12C cells after 48 hrs; format: functional
MDA-MB-468 = experiment: Antitumor activity against human MDA-MB-468 cells after 48 hrs; format: functional; details: MDA-MB-468, 48 h
[7] = Antitumor activity against human HCC2998 cells after 48 hrs; format: functional; details: HCC 2998, 48 h
[8] = Antitumor activity against human MOLT4 cells after 48 hrs; format: functional; details: MOLT-4, 48 h
PC-3 = experiment: Antitumor activity against human PC3 cells after 48 hrs; format: functional; details: PC-3, 48 h
OVCAR-8 = experiment: Antitumor activity against human OVCAR8 cells after 48 hrs; format: functional; details: OVCAR-8, 48 h
MCF7 = experiment: Antitumor activity against human MCF7 cells after 48 hrs; format: functional; details: MCF7, 48 h
NCI-H322M = experiment: Antitumor activity against human NCI-H322M cells after 48 hrs; format: functional
M14 = experiment: Antitumor activity against human M14 cells after 48 hrs; format: functional; details: M14, 48 h
K562 = experiment: Antitumor activity against human K562 cells after 48 hrs; format: functional; details: K562, 48 h
CAKI-1 = experiment: Antitumor activity against human Caki1 cells after 48 hrs; format: functional; details: CAKI-1, 48 h
DU-145 = experiment: Antitumor activity against human DU145 cells after 48 hrs; format: functional; details: DU-145, 48 h
[9] = Antitumor activity against human BT549 cells after 48 hrs; format: functional; details: BT-549, 48 h
UACC-62 = experiment: Antitumor activity against human UACC62 cells after 48 hrs; format: functional; details: UACC-62, 48 h
786-0 = experiment: Antitumor activity against human 786-0 cells after 48 hrs; format: functional; details: 786-0, 48 h
HOP-62 = experiment: Antitumor activity against human HOP62 cells after 48 hrs; format: functional; details: HOP-62, 48 h
ACHN = experiment: Antitumor activity against human ACHN cells after 48 hrs; format: functional
SR = experiment: Antitumor activity against human SR cells after 48 hrs; format: functional
SF-268 = experiment: Antitumor activity against human SF268 cells after 48 hrs; format: functional; details: SF-268, 48 h
CCRF-CEM = experiment: Antitumor activity against human CCRF-CEM cells after 48 hrs; format: functional
SK-MEL-5 = experiment: Antitumor activity against human SK-MEL-5 cells after 48 hrs; format: functional; details: SK-MEL-5, 48 h
[10] = Antitumor activity against human HOP92 cells after 48 hrs; format: functional; details: HOP-92, 48 h
[11] = Antitumor activity against human Hs578T cells after 48 hrs; format: functional; details: Hs-578T
HCT-116 = experiment: Antitumor activity against human HCT116 cells after 48 hrs; format: functional; details: HCT-116, 48 h
SNB-75 = experiment: Antitumor activity against human SNB75 cells after 48 hrs; format: functional; details: SNB-75, 48 h
MDA-MB-231 = experiment: Antitumor activity against human MDA-MB-231 cells after 48 hrs; format: functional; details: MDA-MB-231, 48 h
NCI-H23 = experiment: Antitumor activity against human NCI-H23 cells after 48 hrs; format: functional; details: NCI-H23, 48 h
[12] = Antitumor activity against human SF295 cells after 48 hrs; format: functional; details: SF-295, 48 h
U-251 = experiment: Antitumor activity against human U251 cells after 48 hrs; format: functional; details: U-251, 48 h
HL-60(TB) = experiment: Antitumor activity against human HL-60(TB) cells after 48 hrs; format: functional; details: HL-60, 48 h
KM12 = experiment: Antitumor activity against human KM12 cells after 48 hrs; format: functional; details: KM12, 48 h
SK-MEL-28 = experiment: Antitumor activity against human SK-MEL-28 cells after 48 hrs; format: functional; details: SK-MEL-28, 48 h
A498 = experiment: Antitumor activity against human A498 cells after 48 hrs; format: functional; details: A498, 48 h
IGROV-1 = experiment: Antitumor activity against human IGROV1 cells after 48 hrs; format: functional; details: IGROV-1, 48 h
SNB-19 = experiment: Antitumor activity against human SNB19 cells after 48 hrs; format: functional; details: SNB-19, 48 h
HT-29 = experiment: Antitumor activity against human HT-29 cells after 48 hrs; format: functional; details: HT-29, 48 h
SK-OV-3 = experiment: Antitumor activity against human SKOV3 cells after 48 hrs; format: functional; details: SK-OV-3, 48 h
T47D = experiment: Antitumor activity against human T47D cells after 48 hrs; format: functional
OVCAR-3 = experiment: Antitumor activity against human OVCAR3 cells after 48 hrs; format: functional; details: OVCAR-3, 48 h
OVCAR-5 = experiment: Antitumor activity against human OVCAR5 cells after 48 hrs; format: functional; details: OVCAR-5, 48 h
EKVX = experiment: Antitumor activity against human EKVX cells after 48 hrs; format: functional, cell-based
UO-31 = experiment: Antitumor activity against human UO31 cells after 48 hrs; format: functional; details: UO-31, 48 h

COc1cc(OC)cc(/C(C#N)=C/c2cnc3ccccc3c2)c1
GI50 (HCT-15): 455 nM | GI50 (SW-620): 352 nM | GI50 (NCI-H522): 69 nM | GI50 [1]: 332 nM | GI50 [2]: 672 nM | GI50 [3]: 224 nM | GI50 [4]: 297 nM | GI50 [5]: 289 nM | GI50 [6]: 398 nM | GI50 (UACC-257): 12.8 µM | GI50 (TK-10): 17.7 µM | GI50 (OVCAR-4): 1730 nM | GI50 (SK-MEL-2): 709 nM | GI50 (NCI-H226): 62.2 µM | GI50 (A549): 556 nM | GI50 (NCI-H460): 362 nM | GI50 (MDA-MB-435): 53 nM | GI50 (Malme-3M): 635 nM | GI50 (SN12C): 661 nM | GI50 (MDA-MB-468): 217 nM | GI50 [7]: 1450 nM | GI50 [8]: 378 nM | GI50 (PC-3): 506 nM | GI50 (OVCAR-8): 584 nM | GI50 (MCF7): 333 nM | GI50 (NCI-H322M): 903 nM | GI50 (M14): 310 nM | GI50 (K562): 243 nM | GI50 (CAKI-1): 223 nM | GI50 (DU-145): 505 nM | GI50 [9]: 388 nM | GI50 (UACC-62): 357 nM | GI50 (786-0): 484 nM | GI50 (HOP-62): 793 nM | GI50 (ACHN): 1190 nM | GI50 (SR): inactive | GI50 (SF-268): 654 nM | GI50 (CCRF-CEM): 332 nM | GI50 (SK-MEL-5): 249 nM | GI50 [10]: 3090 nM | GI50 [11]: 715 nM | GI50 (HCT-116): 420 nM | GI50 (SNB-75): 224 nM | GI50 (MDA-MB-231): 1150 nM | GI50 (NCI-H23): 747 nM | GI50 [12]: 243 nM | GI50 (U-251): 374 nM | GI50 (HL-60(TB)): 234 nM | GI50 (KM12): 409 nM | GI50 (SK-MEL-28): 1400 nM | GI50 (A498): 333 nM | GI50 (IGROV-1): 3500 nM | GI50 (SNB-19): 614 nM | GI50 (HT-29): 362 nM | GI50 (SK-OV-3): 576 nM | GI50 (T47D): 628 nM | GI50 (OVCAR-3): 279 nM | GI50 (OVCAR-5): 587 nM | GI50 (EKVX): inactive

COc1cc(OC)cc(/C(C#N)=C/c2ccc3ccccc3n2)c1
GI50 (UO-31): 573 nM | GI50 (HCT-15): 409 nM | GI50 (SW-620): 357 nM | GI50 (NCI-H522): 94 nM | GI50 [1]: 433 nM | GI50 [2]: 610 nM | GI50 [3]: 283 nM | GI50 [4]: 334 nM | GI50 [5]: 286 nM | GI50 [6]: 374 nM | GI50 (TK-10): 3.28 µM | GI50 (OVCAR-4): 788 nM | GI50 (SK-MEL-2): 522 nM | GI50 (NCI-H226): 10.8 µM | GI50 (A549): 649 nM | GI50 (NCI-H460): 339 nM | GI50 (MDA-MB-435): 147 nM | GI50 (Malme-3M): 348 nM | GI50 (SN12C): 661 nM | GI50 (MDA-MB-468): 1500 nM | GI50 [7]: 1420 nM | GI50 [8]: 419 nM | GI50 (PC-3): 584 nM | GI50 (OVCAR-8): 659 nM | GI50 (MCF7): 537 nM | GI50 (NCI-H322M): 3020 nM | GI50 (M14): 360 nM | GI50 (K562): 353 nM | GI50 (CAKI-1): 318 nM | GI50 (DU-145): 801 nM | GI50 [9]: 342 nM | GI50 (UACC-62): 449 nM | GI50 (786-0): 501 nM | GI50 (HOP-62): 959 nM | GI50 (ACHN): 773 nM | GI50 (SR): inactive | GI50 (SF-268): 476 nM | GI50 (CCRF-CEM): 332 nM | GI50 (SK-MEL-5): 406 nM | GI50 [10]: 542 nM | GI50 [11]: 700 nM | GI50 (HCT-116): 416 nM | GI50 (SNB-75): 311 nM | GI50 (MDA-MB-231): 1020 nM | GI50 (NCI-H23): 983 nM | GI50 [12]: 341 nM | GI50 (U-251): 425 nM | GI50 (HL-60(TB)): 270 nM | GI50 (KM12): 425 nM | GI50 (SK-MEL-28): 896 nM | GI50 (A498): 275 nM | GI50 (IGROV-1): 958 nM | GI50 (SNB-19): 728 nM | GI50 (HT-29): 367 nM | GI50 (SK-OV-3): 804 nM | GI50 (T47D): 1230 nM | GI50 (OVCAR-3): 309 nM | GI50 (OVCAR-5): 716 nM | GI50 (EKVX): inactive
